Data taken from patent US20250011299A1, “PYRIDAZINYL AMINO DERIVATIVES AS ALK5 INHIBITORS” (CHIESI FARMACEUTICI S.P.A., priority 2021, published 2025).

These compounds were tested against T1, human ALK5 (Homo sapiens, UniProt P36897) (assay: ADP-GLO Kinases assay of ALK5 enzymatic activity). Conditions: purified recombinant human ALK5, TGFβ1 peptide substrate, pIC50 converted to pKi by Cheng-Prusoff, high ATP protocol (15 μM) for very potent compounds, 25° C.
T1 construct: human ALK5 (recombinant TGF β1 N-term GST-tagged, 80-end); GST (N); purchased
T1 sequence (P36897 80-503 limits assumed): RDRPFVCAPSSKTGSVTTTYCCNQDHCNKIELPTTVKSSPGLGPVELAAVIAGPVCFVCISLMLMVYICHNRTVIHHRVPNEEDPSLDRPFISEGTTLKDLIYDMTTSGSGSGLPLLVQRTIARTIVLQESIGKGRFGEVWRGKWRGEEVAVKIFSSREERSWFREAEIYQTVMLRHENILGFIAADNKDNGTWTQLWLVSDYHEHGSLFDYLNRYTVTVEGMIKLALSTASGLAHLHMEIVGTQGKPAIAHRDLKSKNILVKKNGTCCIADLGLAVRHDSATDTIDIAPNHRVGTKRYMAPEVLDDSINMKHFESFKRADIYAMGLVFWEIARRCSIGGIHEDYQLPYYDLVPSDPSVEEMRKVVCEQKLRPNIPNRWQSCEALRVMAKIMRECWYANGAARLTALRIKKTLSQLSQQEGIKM
Type: biochemical
Description: The enzymatic activity of compounds of the present invention was monitored measuring the formation of ADP using the ADP-GLO Kinases assay. Following the incubation of the purified enzyme, a substrate and ATP, the produced ADP was converted into ATP, which in turn was converted into light by Ultra-Glo Luciferase. The luminescent signal positively correlated with ADP amount and kinase activity. […] Compound and ALK5 kinase were mixed and incubated for 15 mins. […] After an incubation of 120 min, the reaction was stopped, and ADP production detected with ADP-Glo kit according to manufacturer's indications. […] After an incubation of 60 min, the kinase reaction was stopped, and ADP production detected with ADP-Glo kit according to manufacturer's indications. All reaction and incubation steps were performed at 25° C. and the assays were performed in 384-well format and validated using a selection of reference compounds tested in 11-point concentration-response curve. […] Results were expressed as pIC50 (negative logarithm of IC50) and subsequently converted to pKi (negative logarithm of […]) using the Cheng-Prusoff equation. The higher the value of pKi, the greater the inhibition of ALK5 activity.

Row | SMILES | Ki [nM]
1 | CN(CCC(O)C(F)(F)F)c1nnc(-c2cc(Cl)ccc2F)cc1Nc1ccnc(NC(=O)CN2C[C@@H]3C[C@H]2CN3C)c1 (mixture of isomers) [Example 130, N-(4-{[6-(5-chloro-2-fluorophenyl)-3-[methyl(4,4,4-trifluoro-3-hydroxybutyl)amino]pyridazin-4-yl]amino}pyridin-2-yl)-2-[(1S,4S)-5-methyl-2,5-diazabicyclo[2.2.1]heptan-2-yl]acetamide] | ≤ 0.1
2 | CN1CCN(CCC(=O)Nc2cc(Nc3cc(-c4cc(Cl)ccc4F)nnc3N(C)CC3(C)CCOC3=O)ncn2)CC1 (racemic) [Example 137, N-(6-{[6-(5-chloro-2-fluorophenyl)-3-{methyl[(3-methyl-2-oxooxolan-3-yl)methyl]amino}pyridazin-4-yl]amino}pyrimidin-4-yl)-3-(4-methylpiperazin-1-yl)propanamide] | ≤ 0.1
3 | CC(C)OC(=O)C1CCN1c1nnc(-c2cc(Cl)ccc2F)cc1Nc1ccnc(NC(=O)CCN2CCN(C)CC2)c1 (racemic) [Example 150, propan-2-yl 1-[6-(5-chloro-2-fluorophenyl)-4-({2-[3-(4-methylpiperazin-1-yl)propanamido]pyridin-4-yl}amino)pyridazin-3-yl]azetidine-2-carboxylate] | 0.398 to 3.16
4 | O=C(Nc1cc(Nc2cc(-c3cc(Cl)ccc3F)nnc2SCCO)ccn1)C1CC(N2CCC(F)(F)C(CO)C2)C1 (racemic) [Example 170, N-(4-{[6-(5-chloro-2-fluorophenyl)-3-[(2-hydroxyethyl)sulfanyl]pyridazin-4-yl]amino}pyridin-2-yl)-3-[4,4-difluoro-3-(hydroxymethyl)piperidin-1-yl]cyclobutane-1-carboxamide] | ≤ 0.1
5 | COCC1(CN(C)c2nnc(-c3cc(Cl)ccc3F)cc2Nc2ccnc(NC(=O)CCN3CCN(C)CC3)c2)CCOC1=O (racemic) [Example 200, N-(4-{[6-(5-chloro-2-fluorophenyl)-3-({[3-(methoxymethyl)-2-oxooxolan-3-yl]methyl}(methyl)amino)pyridazin-4-yl]amino}pyridin-2-yl)-3-(4-methylpiperazin-1-yl)propanamide] | ≤ 0.1
6 | CN1CCCN(CC(=O)Nc2cc(Nc3cc(-c4cc(Cl)ccc4F)nnc3OC3CCOC3)ccn2)CC1 (single isomer, unassigned) [Example 73, N-(4-{[6-(5-chloro-2-fluorophenyl)-3-(oxolan-3-yloxy)pyridazin-4-yl]amino}pyridin-2-yl)-2-(4-methyl-1,4-diazepan-1-yl)acetamide] | ≤ 0.1
7 | CN1CCN(CCC(=O)Nc2cc(Nc3cc(-c4cc(Cl)ccc4F)nnc3N(C)[C@H]3CCOC3)ccn2)CC1 (single isomer, unassigned) [Example 106, N-(4-{[6-(5-chloro-2-fluorophenyl)-3-[methyl(oxolan-3-yl)amino]pyridazin-4-yl]amino}pyridin-2-yl)-3-(4-methylpiperazin-1-yl)propanamide] | 0.126 to 0.316
8 | CN1CCN([C@H]2C[C@@H](C(=O)Nc3cc(Nc4cc(-c5cc(Cl)ccc5F)nnc4OC4CCOC4)ccn3)C2)CC1 (single isomer, unassigned) [Example 111, N-(4-{[6-(5-chloro-2-fluorophenyl)-3-(oxolan-3-yloxy)pyridazin-4-yl]amino}pyridin-2-yl)-3-(4-methylpiperazin-1-yl)cyclobutane-1-carboxamide] | ≤ 0.1
9 | CN1CCN([C@H]2C[C@H](C(=O)Nc3cc(Nc4cc(-c5cc(Cl)ccc5F)nnc4OC4CCOC4)ccn3)C2)CC1 (single isomer, unassigned) [Example 112, N-(4-{[6-(5-chloro-2-fluorophenyl)-3-(oxolan-3-yloxy)pyridazin-4-yl]amino}pyridin-2-yl)-3-(4-methylpiperazin-1-yl)cyclobutane-1-carboxamide] | ≤ 0.1

Second part, the compound after the results:

Row | Ki [nM] | SMILES
10 | ≤ 0.1 | CN1CCCN(CC(=O)Nc2cc(Nc3cc(-c4cc(Cl)ccc4F)nnc3OC3CCOC3)ccn2)CC1 (racemic) [Example 72, N-(4-{[6-(5-chloro-2-fluorophenyl)-3-(oxolan-3-yloxy)pyridazin-4-yl]amino}pyridin-2-yl)-2-(4-methyl-1,4-diazepan-1-yl)acetamide]
11 | ≤ 0.1 | CN1CCN(CCC(=O)Nc2cc(Nc3cc(-c4cc(Cl)ccc4F)nnc3N(C)C3CCOC3)ccn2)CC1 (racemic) [Example 105, N-(4-{[6-(5-chloro-2-fluorophenyl)-3-[methyl(oxolan-3-yl)amino]pyridazin-4-yl]amino}pyridin-2-yl)-3-(4-methylpiperazin-1-yl)propanamide]
12 | ≤ 0.1 | CN1CCN(CCC(=O)Nc2cc(Nc3cc(-c4cc(Cl)ccc4F)nnc3N(C)C[C@@]3(C)CCOC3=O)ccn2)CC1 (racemic) [Example 127, N-(4-{[6-(5-chloro-2-fluorophenyl)-3-{methyl[(3-methyl-2-oxooxolan-3-yl)methyl]amino}pyridazin-4-yl]amino}pyridin-2-yl)-3-(4-methylpiperazin-1-yl)propanamide]
13 | ≤ 0.1 | CN1CCN([C@H]2C[C@@H](C(=O)Nc3cc(Nc4cc(-c5cc(Cl)ccc5F)nnc4SCCO)ccn3)C2)CC1CCF (mixture of isomers) [Example 172, Cis N-(4-{[6-(5-chloro-2-fluorophenyl)-3-[(2-hydroxyethyl)sulfanyl]pyridazin-4-yl]amino}pyridin-2-yl)-3-[3-(2-fluoroethyl)-4-methylpiperazin-1-yl]cyclobutane-1-carboxamide]
14 | 0.398 to 3.16 | CC(C)OC(=O)C1CCN1c1nnc(-c2cc(Cl)ccc2F)cc1Nc1ccnc(NC(=O)CCN2C[C@@H](C)N[C@@H](C)C2)c1 (mixture of isomers) [Example 184, propan-2-yl 1-[6-(5-chloro-2-fluorophenyl)-4-({2-[3-(3,5-dimethylpiperazin-1-yl)propanamido]pyridin-4-yl}amino)pyridazin-3-yl]azetidine-2-carboxylate]
15 | ≤ 0.1 | C[C@@H]1CN([C@H]2C[C@H](C(=O)Nc3cc(Nc4cc(-c5cc(Cl)ccc5F)nnc4N(C)CC4(C)CCOC4=O)ncn3)C2)C[C@H](C)N1 (mixture of isomers) [Example 185, N-(6-{[6-(5-chloro-2-fluorophenyl)-3-{methyl[(3-methyl-2-oxooxolan-3-yl)methyl]amino}pyridazin-4-yl]amino}pyrimidin-4-yl)-3-(3,5-dimethylpiperazin-1-yl)cyclobutane-1-carboxamide]
16 | 0.126 to 0.316 | CN1CCN(CCC(=O)Nc2cc(Nc3cc(-c4cc(Cl)ccc4F)nnc3SC3(C)CCOC3=O)ccn2)CC1 (racemic) [Example 192, N-(4-{[6-(5-chloro-2-fluorophenyl)-3-[(3-methyl-2-oxooxolan-3-yl)sulfanyl]pyridazin-4-yl]amino}pyridin-2-yl)-3-(4-methylpiperazin-1-yl)propanamide]
17 | ≤ 0.1 | CN1CCN(CCC(=O)Nc2cc(Nc3cc(-c4cc(Cl)ccc4F)nnc3SCC3CCCC(=O)O3)ccn2)CC1 (racemic) [Example 204, N-(4-{[6-(5-chloro-2-fluorophenyl)-3-{[(6-oxooxan-2-yl)methyl]sulfanyl}pyridazin-4-yl]amino}pyridin-2-yl)-3-(4-methylpiperazin-1-yl)propanamide]
18 | ≤ 0.1 | CN1CCN(CCC(=O)Nc2cc(Nc3cc(-c4cc(Cl)ccc4F)nnc3SCCNC(=O)C3COC(=O)C3)ccn2)CC1 (racemic) [Example 205, N-(2-{[6-(5-chloro-2-fluorophenyl)-4-({2-[3-(4-methylpiperazin-1-yl)propanamido]pyridin-4-yl}amino)pyridazin-3-yl]sulfanyl}ethyl)-5-oxooxolane-3-carboxamide]
19 | ≤ 0.1 | CN1CCN(CCC(=O)Nc2cc(Nc3cc(-c4cc(Cl)ccc4F)nnc3OC3CCOC3)ccn2)CC1 (single isomer, unassigned) [Example 75, N-(4-{[6-(5-chloro-2-fluorophenyl)-3-(oxolan-3-yloxy)pyridazin-4-yl]amino}pyridin-2-yl)-3-(4-methylpiperazin-1-yl)propanamide]
20 | ≤ 0.1 | CN1CCN([C@H]2C[C@H](C(=O)Nc3cc(Nc4cc(-c5cc(Cl)ccc5F)nnc4N(C)C)ccn3)C2)CC1 (single isomer, unassigned) [Example 96, trans N-(4-{[6-(5-chloro-2-fluorophenyl)-3-(dimethylamino)pyridazin-4-yl]amino}pyridin-2-yl)-3-(4-methylpiperazin-1-yl)cyclobutane-1-carboxamide]
21 | ≤ 0.1 | CN1CCN(CCC(=O)Nc2cc(Nc3cc(-c4cc(Cl)ccc4F)nnc3N(C)[C@@H]3CCOC3)ccn2)CC1 (single isomer, unassigned) [Example 107, N-(4-{[6-(5-chloro-2-fluorophenyl)-3-[methyl(oxolan-3-yl)amino]pyridazin-4-yl]amino}pyridin-2-yl)-3-(4-methylpiperazin-1-yl)propanamide]
